In ChEMBL document CHEMBL1201862, “PubChem BioAssay data set” (2004):
Calls of active or inactive are those of the source.

Columns and labels:
A-375 [1] = experiment: MITF: Counter assay: A375 proliferation Measured in Cell-Based System Using Plate Reader - 2084-03_Inhibitor_Dose_DryPowder_Activity. [Related pubchem assays (depositor defined):AID488944]; format: functional; settings: Homo sapiens
A-375 [2] = experiment: A375 melanoma cell viability reduction, dose response, counter-screen for MITF modulator project, cherry-pick samples, set 2 (AID 540335); format: functional, cell-based; settings: Homo sapiens
[3] = target: Sphingosine 1-phosphate receptor 1 (Homo sapiens, UniProt P21453); experiment: Fluorescence-based counterscreen assay for S1P4 agonists: Cell-based dose response high throughput screening assay to identify agonists of the Sphingosine 1-Phosphate Receptor 1 (S1P1). [Related pubchem assays (depositor defined):AID1509, AID1523, AID1801, AID463107, AID463118, AID463119, AID463122, AID463123, AID463129, AID463225, AID504400, AID504460]; format: functional
[4] = target: T1, Sphingosine 1-phosphate receptor 4 (Homo sapiens, UniProt O95977); experiment: Fluorescence dose response cell-based high throughput screening assay for agonists of the Sphingosine 1-Phosphate Receptor 4 (S1P4). [Related pubchem assays: 1509 (Primary screen.), 1523 (Confirmation screen in triplicates.)]; format: functional
T1 sequence (O95977 whole entry): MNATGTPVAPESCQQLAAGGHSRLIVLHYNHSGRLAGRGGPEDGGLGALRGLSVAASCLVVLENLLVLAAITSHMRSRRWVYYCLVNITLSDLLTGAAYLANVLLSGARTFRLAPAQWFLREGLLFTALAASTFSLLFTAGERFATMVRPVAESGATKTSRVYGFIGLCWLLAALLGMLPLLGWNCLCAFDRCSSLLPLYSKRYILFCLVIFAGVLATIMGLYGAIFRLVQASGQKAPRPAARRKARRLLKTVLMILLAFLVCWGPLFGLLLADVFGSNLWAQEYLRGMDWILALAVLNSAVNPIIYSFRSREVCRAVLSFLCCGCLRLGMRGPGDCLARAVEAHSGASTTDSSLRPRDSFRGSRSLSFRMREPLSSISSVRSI

[5] = target: T2, Polyadenylate-binding protein 1 (Homo sapiens, UniProt P11940); experiment: PABP1 MLLE–PAM2 interaction inhibitors, dose response, miRNA deadenylation inhibitor project, biochemical, fluorescence polarization, Cy5-PAM2 peptide, secondary (AID 602260); format: functional; settings: read-out: IC50_Mean
[6] = target: Lysine-specific demethylase 4C (Homo sapiens, UniProt Q9H3R0); experiment: GASC-1 (JMJD2C) histone demethylase inhibitors, dose response, biochemical, DELFIA europium, cherry-picked samples (AID 488835); format: functional
[7] = target: T2, Polyadenylate-binding protein 1; experiment: PABP1 MLLE–PAM2 binding inhibitor potency, dose response, biochemical, fluorescence polarization, FITC-PAM2 peptide (AID 602259); format: functional; settings: read-out: IC50_Mean
HEK293 [8] = experiment: cells; settings: Homo sapiens
[9] = target: Nucleotide-binding oligomerization domain-containing protein 1 (Homo sapiens, UniProt Q9Y239); experiment: NOD1 signaling inhibitors, SAR follow-up, revised (AID 2333); format: functional
[10] = target: Nucleotide-binding oligomerization domain-containing protein 2 (Homo sapiens, UniProt Q9HC29); experiment: PubChem AID 2334; format: functional
Tumor necrosis factor = Tumor necrosis factor (Homo sapiens, UniProt P01375); experiment: TNFa-triggered NF-kB activation inhibitors, SAR follow-up, cell-based, revised (AID 2337); format: functional
Cytochrome P450 2D6 = Cytochrome P450 2D6 (Homo sapiens, UniProt P10635);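 also: CYP2D6 member of a cytochrome P450 panel assay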
[11] = target: T3, Heat shock factor protein 1 (Mus musculus, UniProt P38532); experiment: inhibition of MG132-induced HSE-luciferase signal, confirmation, cell-based, NIH3T3, luminescence, dose retest (AID 2382); format: functional;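 also: NIH3T3 fibroblasts with HSF1-driven luciferase reporter stressed by proteasome inhibitor MG132; luminescence from HSF1-driven luciferase expression after 8 hours of MG132 stress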
T3 sequence (P38532 whole entry): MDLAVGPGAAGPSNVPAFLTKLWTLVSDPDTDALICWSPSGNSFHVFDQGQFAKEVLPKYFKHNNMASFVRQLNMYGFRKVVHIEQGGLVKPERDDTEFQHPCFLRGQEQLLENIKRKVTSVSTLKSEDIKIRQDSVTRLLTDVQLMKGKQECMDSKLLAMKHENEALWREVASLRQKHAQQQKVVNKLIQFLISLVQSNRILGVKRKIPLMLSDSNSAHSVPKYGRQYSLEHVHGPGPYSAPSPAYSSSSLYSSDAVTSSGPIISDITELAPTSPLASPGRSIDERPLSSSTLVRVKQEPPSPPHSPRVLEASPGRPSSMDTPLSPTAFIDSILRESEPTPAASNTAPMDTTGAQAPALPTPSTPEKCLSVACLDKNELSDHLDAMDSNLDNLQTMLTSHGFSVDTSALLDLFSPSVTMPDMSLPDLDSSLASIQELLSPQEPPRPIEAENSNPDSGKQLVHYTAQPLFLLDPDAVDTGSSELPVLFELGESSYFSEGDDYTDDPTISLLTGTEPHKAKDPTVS

Insulin-degrading enzyme [12] = target: T4, Insulin-degrading enzyme (Homo sapiens, UniProt P14735); experiment: activators of endogenous IDE in HEK cells, dose response, cell-based, fluorescence polarization (AID 588439); format: functional
T4 sequence (P14735 whole entry): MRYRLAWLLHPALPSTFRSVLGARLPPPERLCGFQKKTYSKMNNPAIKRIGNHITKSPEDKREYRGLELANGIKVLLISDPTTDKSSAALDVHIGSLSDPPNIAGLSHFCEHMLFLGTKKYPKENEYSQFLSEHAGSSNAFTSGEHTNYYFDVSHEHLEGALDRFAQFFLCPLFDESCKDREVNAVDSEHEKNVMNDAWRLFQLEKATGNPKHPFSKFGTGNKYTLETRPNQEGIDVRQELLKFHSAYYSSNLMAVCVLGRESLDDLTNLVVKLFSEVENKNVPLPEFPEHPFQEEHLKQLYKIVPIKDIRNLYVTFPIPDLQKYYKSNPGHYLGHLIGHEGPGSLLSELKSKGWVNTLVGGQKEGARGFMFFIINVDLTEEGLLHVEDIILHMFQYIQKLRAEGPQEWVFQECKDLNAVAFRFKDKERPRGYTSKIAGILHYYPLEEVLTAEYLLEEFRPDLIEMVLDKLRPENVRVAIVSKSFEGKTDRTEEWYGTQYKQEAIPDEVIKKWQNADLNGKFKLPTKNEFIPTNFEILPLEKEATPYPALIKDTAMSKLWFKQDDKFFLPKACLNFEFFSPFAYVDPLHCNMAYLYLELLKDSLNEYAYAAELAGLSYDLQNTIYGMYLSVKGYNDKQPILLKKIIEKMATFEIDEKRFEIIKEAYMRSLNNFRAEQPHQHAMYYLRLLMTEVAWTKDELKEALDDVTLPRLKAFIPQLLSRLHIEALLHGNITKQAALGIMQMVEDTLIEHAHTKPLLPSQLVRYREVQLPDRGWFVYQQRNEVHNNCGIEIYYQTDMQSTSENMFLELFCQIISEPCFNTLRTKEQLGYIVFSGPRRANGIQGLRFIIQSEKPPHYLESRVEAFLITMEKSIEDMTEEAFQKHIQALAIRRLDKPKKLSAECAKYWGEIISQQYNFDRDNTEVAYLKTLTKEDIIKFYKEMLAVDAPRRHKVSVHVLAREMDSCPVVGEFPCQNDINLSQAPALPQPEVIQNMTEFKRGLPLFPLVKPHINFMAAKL

HeLa = experiment: HeLa cell cytotoxicity, dose response, cytotoxicity control, 24 h, cherry-picked samples (AID 504726); format: functional, cell-based; settings: Homo sapiens;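 also: potency for cytotoxicity as loss of luminescence signal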
HEK293 [13] = experiment: optical interference in Abeta FP readout, dose response, artefact control for IDE activator project, biochemical, fluorescence polarization (AID 588442); format: functional, cell-based; settings: Homo sapiens
[14] = target: UDP-galactopyranose mutase (Mycobacterium tuberculosis, UniProt P9WIQ1); experiment: Inhibitors of Mycobacterium tuberculosis UDP-galactopyranose mutase (UGM) enzyme Measured in Biochemical System Using Plate Reader - 2105-02_Inhibitor_Dose_CherryPick_Activity. [Related pubchem assays (depositor defined):AID504439]
Insulin-degrading enzyme [15] = target: T4, Insulin-degrading enzyme; experiment: activators of recombinant IDE enzyme, dose response, counter-screen for IDE activator project, biochemical, fluorescence polarization (AID 588681)
HEK293 [16] = experiment: HEK cell cytotoxicity by LDH release, dose response, cytotoxicity control for IDE activator project, fluorescence, HEK cells (AID 588440); format: functional, cell-based; settings: Homo sapiens;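 also: cytotoxicity by LDH release measuring loss of membrane integrity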
Cytochrome P450 1A2 = target: T5, Cytochrome P450 1A2 (Homo sapiens, UniProt P05177);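 also: PubChem cytochrome P450 panel assay, CYP1A2 panel member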
T5 sequence (P05177 whole entry): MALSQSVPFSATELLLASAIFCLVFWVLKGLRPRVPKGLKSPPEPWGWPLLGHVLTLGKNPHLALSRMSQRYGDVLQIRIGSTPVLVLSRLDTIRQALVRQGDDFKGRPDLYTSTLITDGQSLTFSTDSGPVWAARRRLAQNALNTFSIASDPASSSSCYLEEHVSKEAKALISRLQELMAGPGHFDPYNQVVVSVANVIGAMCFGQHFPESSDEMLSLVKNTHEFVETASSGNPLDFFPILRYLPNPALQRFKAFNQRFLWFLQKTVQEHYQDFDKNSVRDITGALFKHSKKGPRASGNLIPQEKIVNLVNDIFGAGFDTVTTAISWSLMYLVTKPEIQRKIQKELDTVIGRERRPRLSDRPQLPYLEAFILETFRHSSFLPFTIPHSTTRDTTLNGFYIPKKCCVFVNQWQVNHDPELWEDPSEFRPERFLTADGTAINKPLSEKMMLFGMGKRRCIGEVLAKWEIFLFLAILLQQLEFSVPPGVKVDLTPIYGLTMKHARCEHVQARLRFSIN

Cytochrome P450 2C9 = Cytochrome P450 2C9 (Homo sapiens, UniProt P11712)
Cytochrome P450 2C19 = Cytochrome P450 2C19 (Homo sapiens, UniProt P33261); experiment: Cytochrome panel assay with activity outcomes. Panel member name: p450-cyp2c19 Compounds with AC50 equal or less than 10 uM are considered active; format: functional
Sequence of Cytochrome P450 2C19 (P33261 whole entry): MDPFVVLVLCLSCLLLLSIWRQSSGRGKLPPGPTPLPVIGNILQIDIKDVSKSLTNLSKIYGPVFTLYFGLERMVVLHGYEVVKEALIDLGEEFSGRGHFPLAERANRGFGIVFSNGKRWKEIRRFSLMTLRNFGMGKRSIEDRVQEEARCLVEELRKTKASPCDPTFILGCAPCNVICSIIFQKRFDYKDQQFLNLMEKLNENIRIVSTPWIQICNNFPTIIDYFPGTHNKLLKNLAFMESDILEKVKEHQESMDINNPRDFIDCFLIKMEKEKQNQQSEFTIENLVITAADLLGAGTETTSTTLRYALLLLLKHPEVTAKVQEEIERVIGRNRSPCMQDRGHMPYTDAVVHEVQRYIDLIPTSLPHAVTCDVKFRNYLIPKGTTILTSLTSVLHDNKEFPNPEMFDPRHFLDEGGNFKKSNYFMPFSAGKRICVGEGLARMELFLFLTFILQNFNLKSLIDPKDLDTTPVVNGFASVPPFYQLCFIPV

T2 sequence (P11940 whole entry): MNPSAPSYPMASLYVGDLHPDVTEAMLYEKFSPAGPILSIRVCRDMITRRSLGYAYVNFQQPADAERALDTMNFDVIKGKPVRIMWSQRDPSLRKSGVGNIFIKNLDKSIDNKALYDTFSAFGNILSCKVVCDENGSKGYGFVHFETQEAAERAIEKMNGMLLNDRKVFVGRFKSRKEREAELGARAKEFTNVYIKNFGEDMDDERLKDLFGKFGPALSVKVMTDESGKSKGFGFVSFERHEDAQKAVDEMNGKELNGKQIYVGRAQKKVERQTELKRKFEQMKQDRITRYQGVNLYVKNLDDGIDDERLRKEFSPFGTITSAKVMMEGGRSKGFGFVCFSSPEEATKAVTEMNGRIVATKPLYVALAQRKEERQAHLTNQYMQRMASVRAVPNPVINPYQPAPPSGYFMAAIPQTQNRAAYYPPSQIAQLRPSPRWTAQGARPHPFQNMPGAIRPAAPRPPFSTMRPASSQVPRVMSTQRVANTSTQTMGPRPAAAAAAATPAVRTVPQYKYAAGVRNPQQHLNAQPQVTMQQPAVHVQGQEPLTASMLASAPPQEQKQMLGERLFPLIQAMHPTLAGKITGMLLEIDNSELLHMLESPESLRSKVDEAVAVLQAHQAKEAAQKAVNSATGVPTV
Sequence of Cytochrome P450 2D6 (P10635 whole entry): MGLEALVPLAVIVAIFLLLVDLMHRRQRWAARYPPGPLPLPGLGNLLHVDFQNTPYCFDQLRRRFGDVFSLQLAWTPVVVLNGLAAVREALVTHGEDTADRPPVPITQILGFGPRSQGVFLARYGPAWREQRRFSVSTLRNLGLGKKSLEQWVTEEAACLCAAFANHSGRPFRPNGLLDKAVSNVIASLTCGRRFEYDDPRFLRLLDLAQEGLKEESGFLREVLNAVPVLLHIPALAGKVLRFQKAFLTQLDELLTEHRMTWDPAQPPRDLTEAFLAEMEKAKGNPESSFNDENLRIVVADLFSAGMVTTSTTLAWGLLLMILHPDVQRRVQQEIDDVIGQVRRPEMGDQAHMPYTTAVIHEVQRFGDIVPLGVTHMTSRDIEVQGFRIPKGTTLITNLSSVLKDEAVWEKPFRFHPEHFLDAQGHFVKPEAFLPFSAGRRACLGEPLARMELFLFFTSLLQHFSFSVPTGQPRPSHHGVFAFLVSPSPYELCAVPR
Sequence of Sphingosine 1-phosphate receptor 1 (P21453 whole entry): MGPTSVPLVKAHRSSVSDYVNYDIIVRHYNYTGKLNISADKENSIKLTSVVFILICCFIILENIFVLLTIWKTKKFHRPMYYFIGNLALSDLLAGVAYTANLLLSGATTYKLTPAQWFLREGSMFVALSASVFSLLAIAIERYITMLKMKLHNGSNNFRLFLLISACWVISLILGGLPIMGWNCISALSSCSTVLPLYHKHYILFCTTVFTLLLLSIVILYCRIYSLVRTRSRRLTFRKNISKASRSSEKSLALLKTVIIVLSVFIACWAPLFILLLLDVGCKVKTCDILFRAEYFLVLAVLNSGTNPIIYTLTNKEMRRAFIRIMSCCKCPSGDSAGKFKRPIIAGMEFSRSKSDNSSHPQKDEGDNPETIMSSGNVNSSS
Sequence of Lysine-specific demethylase 4C (Q9H3R0 whole entry): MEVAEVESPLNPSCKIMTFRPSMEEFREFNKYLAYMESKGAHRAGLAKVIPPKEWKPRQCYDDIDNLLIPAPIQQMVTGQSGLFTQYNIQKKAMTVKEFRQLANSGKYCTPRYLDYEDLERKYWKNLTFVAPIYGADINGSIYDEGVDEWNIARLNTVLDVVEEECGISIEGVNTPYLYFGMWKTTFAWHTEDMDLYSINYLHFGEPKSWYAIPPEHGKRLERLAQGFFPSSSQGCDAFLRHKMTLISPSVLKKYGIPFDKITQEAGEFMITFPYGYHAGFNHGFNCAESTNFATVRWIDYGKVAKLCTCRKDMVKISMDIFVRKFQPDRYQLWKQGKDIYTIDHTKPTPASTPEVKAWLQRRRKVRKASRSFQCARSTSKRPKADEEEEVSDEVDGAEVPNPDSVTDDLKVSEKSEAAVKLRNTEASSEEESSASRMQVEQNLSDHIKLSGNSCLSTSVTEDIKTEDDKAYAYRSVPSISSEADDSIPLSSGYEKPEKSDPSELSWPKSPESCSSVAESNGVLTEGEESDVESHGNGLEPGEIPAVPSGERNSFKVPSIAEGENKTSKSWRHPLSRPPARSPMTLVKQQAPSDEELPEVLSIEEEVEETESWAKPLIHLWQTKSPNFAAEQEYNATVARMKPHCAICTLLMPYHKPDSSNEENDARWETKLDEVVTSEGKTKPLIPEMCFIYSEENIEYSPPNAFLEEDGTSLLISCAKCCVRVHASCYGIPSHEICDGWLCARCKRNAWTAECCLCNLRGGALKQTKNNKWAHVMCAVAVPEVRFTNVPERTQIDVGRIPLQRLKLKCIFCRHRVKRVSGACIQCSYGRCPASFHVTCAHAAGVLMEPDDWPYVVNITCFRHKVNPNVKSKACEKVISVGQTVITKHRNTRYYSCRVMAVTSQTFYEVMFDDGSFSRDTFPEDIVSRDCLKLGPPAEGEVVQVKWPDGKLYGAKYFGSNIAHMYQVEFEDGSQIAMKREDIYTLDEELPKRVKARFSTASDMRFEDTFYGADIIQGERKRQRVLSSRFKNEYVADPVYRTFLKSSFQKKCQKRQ
Sequence of UDP-galactopyranose mutase (P9WIQ1 whole entry): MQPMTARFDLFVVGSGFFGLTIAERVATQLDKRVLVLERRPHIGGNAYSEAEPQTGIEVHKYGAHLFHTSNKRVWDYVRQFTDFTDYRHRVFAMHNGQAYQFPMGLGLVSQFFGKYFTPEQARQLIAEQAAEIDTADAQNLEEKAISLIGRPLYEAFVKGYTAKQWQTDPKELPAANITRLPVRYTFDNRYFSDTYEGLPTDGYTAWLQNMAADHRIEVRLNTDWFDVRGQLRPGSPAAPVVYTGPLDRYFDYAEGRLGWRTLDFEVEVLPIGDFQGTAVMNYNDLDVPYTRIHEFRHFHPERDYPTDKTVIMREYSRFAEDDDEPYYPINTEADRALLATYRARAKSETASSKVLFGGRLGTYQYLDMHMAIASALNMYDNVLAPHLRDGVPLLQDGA
Sequence of Cytochrome P450 2C9 (P11712 whole entry): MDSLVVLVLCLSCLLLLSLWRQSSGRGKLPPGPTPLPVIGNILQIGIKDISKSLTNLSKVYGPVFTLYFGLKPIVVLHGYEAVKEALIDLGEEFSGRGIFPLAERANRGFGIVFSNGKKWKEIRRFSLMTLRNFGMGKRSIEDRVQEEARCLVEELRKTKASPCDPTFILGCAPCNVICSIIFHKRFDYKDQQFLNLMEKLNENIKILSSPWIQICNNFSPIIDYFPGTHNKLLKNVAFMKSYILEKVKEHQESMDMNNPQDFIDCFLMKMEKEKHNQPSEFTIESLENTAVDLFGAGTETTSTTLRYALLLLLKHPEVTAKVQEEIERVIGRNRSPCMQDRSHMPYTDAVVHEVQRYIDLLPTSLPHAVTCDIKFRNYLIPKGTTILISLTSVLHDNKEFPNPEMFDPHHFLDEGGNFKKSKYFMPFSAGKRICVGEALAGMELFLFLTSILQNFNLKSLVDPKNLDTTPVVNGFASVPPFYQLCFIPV
Sequence of Tumor necrosis factor (P01375 whole entry): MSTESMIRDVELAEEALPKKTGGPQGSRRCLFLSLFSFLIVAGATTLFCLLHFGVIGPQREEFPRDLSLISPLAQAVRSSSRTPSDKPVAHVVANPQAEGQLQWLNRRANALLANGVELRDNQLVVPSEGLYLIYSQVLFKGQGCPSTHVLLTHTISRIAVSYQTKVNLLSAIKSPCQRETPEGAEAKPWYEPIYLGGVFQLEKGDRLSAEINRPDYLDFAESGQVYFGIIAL

With `O=C(Nc1cc2c(cc1Cl)OCCO2)c1ccco1` the AC50 (A-375 [1]) was > 11 µM (active) and the AC50 (A-375 [2]) was > 11 µM (active).
In the case of `CNC(=O)c1[nH]cnc1C(=O)N[C@@H](Cc1ccccc1)C(=O)OCc1ccccc1`, the EC50 [3] is reported as 3.13 µM (active) and the EC50 [4] is reported as > 16.6 µM (not active).
With `O=C(CSc1nc(O)c(Cc2ccccc2)c(=O)[nH]1)c1ccccc1` the IC50 [5] was > 66 µM (inactive), the AC50 [6] was 16.9 µM (active) and the IC50 [7] was 52.5 µM (inactive).
With `O=C(Nc1ccc(CN2CCc3ccccc3C2)cc1)c1ccc(Cl)cc1` the IC50 (HEK293 [8]) was > 20 µM (inactive), the IC50 [9] was > 20 µM (inactive) and the IC50 [10] was > 20 µM (inactive). The IC50 (Tumor necrosis factor) was > 20 µM (inactive).
With `CCS(=O)(=O)N1CCCC(C(=O)NCCCOC(C)C)C1` (stereo not given) the AC50 (Cytochrome P450 2D6) was “inconclusive”.
`C/N=C1/S/C(=C\c2cc(C)n(-c3ccccc3F)c2C)C(=O)N1C` was tested, and the EC50 [3] was 1.18 µM (active), the EC50 [11] was < 0.16 µM (active) and the EC50 [4] was 0.844 µM (active).
In the case of `COc1ccc(N=Nc2nc3ccc(Br)cc3n2C)cc1`, the EC50 (Insulin-degrading enzyme [12]) is reported as > 54.7 µM (inactive), the AC50 (HeLa) is reported as 98.3 µM (active) and the EC50 (HEK293 [13]) is reported as > 54.7 µM (inactive). The AC50 [14] was 145 µM (active), the EC50 (Insulin-degrading enzyme [15]) was > 54.7 µM (inactive) and the IC50 (HEK293 [16]) was > 89.2 µM (inactive).
In the case of `CCCSc1ccc2nc(NC(=O)OC)[nH]c2c1` [ALBENDAZOLE], the AC50 (Cytochrome P450 1A2) is reported as 0.398 µM (active), the AC50 (Cytochrome P450 2C9) is reported as “inactive” and the AC50 (Cytochrome P450 2C19) is reported as “inactive”. For the same molecule, the AC50 (Cytochrome P450 2D6) was “inactive”.
